Results taken from patent US8541411B2, “Benzimidazole derivatives as PI3 kinase inhibitors” (GlaxoSmithKline LLC, priority 2010, dated 2013).

How the values were obtained:
PC-3 = experiment: Anchorage Independent Soft Agar Tumor Growth Assay, PC-3; format: cell-based, human; conditions: percent of DMSO-treated control at Ymin plateau
Description: (§1) Twenty-two Phosphatase and Tensin Homolog (PTEN) wild-type or PTEN deficient tumor cell lines were cultured generally according to instructions supplied by cell culture supplier American Type Culture Collection, Manassas, Va., with 10% fetal bovine serum at 5% CO2 and 37° C. Cells were seeded into either a T-75 or a T-175 flask 3-4 days prior to 96-well assay plating such that the flasks were approximately 70-80% confluent of the time of harvest. Cells were harvested using 0.25% trypsin-EDTA (Invitrogen #25200056). Trypan Blue exclusion staining was used to determine cell number. Viable cells were plated in clear, flat bottom 96-well plates (BD #353075) under anchorage independent conditions at 2,000-10,000 cells per well depending on the cell line. To generate anchorage independent growth conditions, a 5% agar stock solution in water was made and autoclaved to melt and sterilize. […] The next day one plate of cells was processed at the time of compound addition to quantify the starting number of cells (T=0 or T0). […] Following the 6-day incubation, 20 μl of Alamar Blue (Invitrogen #DAL1100) was added to the cells, incubated at 5% CO2 and 37° C. for 6 hours and the plates read on a Spectramax (Gemini EM) at 530 nm (excitation) and 590 nm (emission) with the auto cut-off disabled. […]

U-87MG = experiment: Anchorage Independent Soft Agar Tumor Growth Assay, U-87MG; format: cell-based; conditions: percent of DMSO-treated control at Ymin plateau
Description: as §1

CHL-1 = experiment: Anchorage Independent Soft Agar Tumor Growth Assay, CHL-1; format: cell-based; conditions: percent of DMSO-treated control at Ymin plateau
Description: as §1

HCC70 = experiment: Anchorage Independent Soft Agar Tumor Growth Assay, HCC70; format: cell-based; conditions: percent of DMSO-treated control at Ymin plateau
Description: as §1

SKOV-3 = experiment: Anchorage Independent Soft Agar Tumor Growth Assay, SKOV-3; format: cell-based; conditions: percent of DMSO-treated control at Ymin plateau
Description: as §1

UM-UC-3 = experiment: Anchorage Independent Soft Agar Tumor Growth Assay, UM-UC-3; format: cell-based; conditions: percent of DMSO-treated control at Ymin plateau
Description: as §1

BT549 = experiment: Anchorage Independent Soft Agar Tumor Growth Assay, BT549; format: cell-based; conditions: percent of DMSO-treated control at Ymin plateau
Description: Cells were seeded into either a T-75 or a T-175 flask 3-4 days prior to 96-well assay plating such that the flasks were approximately 70-80% confluent of the time of harvest. Cells were harvested using 0.25% trypsin-EDTA (Invitrogen #25200056). Trypan Blue exclusion staining was used to determine cell number. Viable cells were plated in clear, flat bottom 96-well plates (BD #353075) under anchorage independent conditions at 2,000-10,000 cells per well depending on the cell line. To generate anchorage independent growth conditions, a 5% agar stock solution in water was made and autoclaved to melt and sterilize. From the 5% agar solution, a 0.6% agar/media+10% fetal bovine serum (FBS) solution was made to generate a bottom agar layer in the plates to prevent cell attachment. Seventy five microliters per well of the 0.6% agar-media solution was added to the plates. […] The next day one plate of cells was processed at the time of compound addition to quantify the starting number of cells (T=0 or T0). […] Following the 6-day incubation, 20 μl of Alamar Blue (Invitrogen #DAL1100) was added to the cells, incubated at 5% CO2 and 37° C. for 6 hours and the plates read on a Spectramax (Gemini EM) at 530 nm (excitation) and 590 nm (emission) with the auto cut-off disabled. […]

HCC1954 = experiment: Anchorage Independent Soft Agar Tumor Growth Assay, HCC1954; format: cell-based; conditions: percent of DMSO-treated control at Ymin plateau
Description: as §1

HCC19377 = experiment: Anchorage Independent Soft Agar Tumor Growth Assay, HCC19377; format: cell-based; conditions: percent of DMSO-treated control at Ymin plateau
Description: as §1

HCT-116 = experiment: Anchorage Independent Soft Agar Tumor Growth Assay, HCT-116; format: cell-based; conditions: percent of DMSO-treated control at Ymin plateau
Description: as §1

SW1088 = experiment: Anchorage Independent Soft Agar Tumor Growth Assay, SW1088; format: cell-based; conditions: percent of DMSO-treated control at Ymin plateau
Description: as §1

Colo205 = experiment: Anchorage Independent Soft Agar Tumor Growth Assay, Colo205; format: cell-based; conditions: percent of DMSO-treated control at Ymin plateau
Description: as §1

UACC-62 = experiment: Anchorage Independent Soft Agar Tumor Growth Assay, UACC-62; format: cell-based; conditions: percent of DMSO-treated control at Ymin plateau
Description: as §1

HCC1395 = experiment: Anchorage Independent Soft Agar Tumor Growth Assay, HCC1395; format: cell-based; conditions: percent of DMSO-treated control at Ymin plateau
Description: as §1

LOXIMVI = experiment: Anchorage Independent Soft Agar Tumor Growth Assay, LOXIMVI; format: cell-based; conditions: percent of DMSO-treated control at Ymin plateau
Description: as §1

U251 = experiment: Anchorage Independent Soft Agar Tumor Growth Assay, U251; format: cell-based; conditions: percent of DMSO-treated control at Ymin plateau
Description: as §1

MDA-MB-468 = experiment: Anchorage Independent Soft Agar Tumor Growth Assay, MDA-MB-468; format: cell-based; conditions: percent of DMSO-treated control at Ymin plateau
Description: as §1

WM-115 = experiment: Anchorage Independent Soft Agar Tumor Growth Assay, WM-115; format: cell-based; conditions: percent of DMSO-treated control at Ymin plateau
Description: as §1

C32 = experiment: Anchorage Independent Soft Agar Tumor Growth Assay, C32; format: cell-based; conditions: percent of DMSO-treated control at Ymin plateau
Description: as §1

pAKT (pAKT/tAKT) = experiment: Pharmacodynamic effects, pAKT in PC-3 xenograft tumors; format: in vivo, mouse; conditions: mice given 3 mg/kg or 10 mg/kg, 1-24 hours
Description: Female nude mice (Charles River Laboratories, Wilmington, Del.; strain CD-1-Foxn1, 6 weeks of age) were injected subcutaneously with 2 million PC-3 (human prostate carcinoma) cells mixed 1:1 with Matrigel in the flank. Tumors were allowed to grow for approximately 5 weeks. […] The tumor was excised. Half of each tumor was immediately processed by Medicon (BD Catalog #340592) in 1 mL Meso-Scale Discovery (MSD) lysis buffer with protease inhibitors (Roche complete protease cocktail, cat#04 693 116 001) and phosphatase inhibitors (Sigma, cat #P2850 and P-5726) for 30-60 seconds and transferred to 1.5 mL Eppendorf tubes. Tubes remained on wet ice until they were centrifuged for 10 minutes at 4° C. at maximum speed in a tabletop refrigerated centrifuge. Tumor lysates were serially diluted in 96-well polypropylene plates on wet ice. Lysates (150 μL) were loaded in row 1; rows 2-12 were loaded with 75 μL of complete Meso Scale Discovery (MSD) lysis buffer (supplied in MSD kit; #[…]-3). Samples were serially diluted 2-fold across the plate by sequential transfer of 75 μL through well 11; row 12 contained lysis buffer only. […] Plates were washed as described above, before the addition of 150 μL of MSD read buffer and read immediately on a 6000 MSD plate reader. […] P/T AKT was calculated as shown: (phospho AKT(Ser473) signal)/[(phospho AKT(Ser473) signal)+(total AKT signal)]. […]

BT474 = experiment: Anchorage Independent Soft Agar Tumor Growth Assay, BT474; format: cell-based; conditions: percent of DMSO-treated control at Ymin plateau
Description: as §1

H4 = experiment: Anchorage Independent Soft Agar Tumor Growth Assay, H4; format: cell-based; conditions: percent of DMSO-treated control at Ymin plateau
Description: as §1

SW1783 = experiment: Anchorage Independent Soft Agar Tumor Growth Assay, SW1783; format: cell-based; conditions: percent of DMSO-treated control at Ymin plateau
Description: as §1

## Cc1c(Cn2c(C)nc3c(C(=O)O)cc(N4CCOCC4)cc32)cccc1C(F)(F)F [Example 31, 2-methyl-1-{[2-methyl-3-(trifluoromethyl)phenyl]methyl}-6-(4-morpholinyl)-1H-benzimidazole-4-carboxylic acid]
PC-3
  Ymin ± StDev: 82 ± 13
U-87MG
  Ymin ± StDev: 34 ± 18
CHL-1
  Ymin ± StDev: 82 ± 2
HCC70
  Ymin ± StDev: 27 ± 8
SKOV-3
  Ymin ± StDev: >80
UM-UC-3
  Ymin ± StDev: 83 ± 29
BT549
  Ymin ± StDev: 52 ± 7
HCC1954
  Ymin ± StDev: >80
HCC19377
  Ymin ± StDev: 67 ± 8
HCT-116
  Ymin ± StDev: >80
SW1088
  Ymin ± StDev: 36 ± 8
Colo205
  Ymin ± StDev: >80
UACC-62
  Ymin ± StDev: 76 ± 18
HCC1395
  Ymin ± StDev: 26 ± 9
LOXIMVI
  Ymin ± StDev: >90
U251
  Ymin ± StDev: 80 ± 17
MDA-MB-468
  Ymin ± StDev: 44 ± 6
WM-115
  Ymin ± StDev: 54 ± 14
C32
  Ymin ± StDev: 20 ± 14
pAKT (pAKT/tAKT)
  inhibition of the pharmacodynamic marker pAKT (pAKT/tAKT): dose dependent inhibition
BT474
  Ymin ± StDev: 75 ± 3
H4
  Ymin ± StDev: 55 ± 18
SW1783
  Ymin ± StDev: 69 ± 4
